Measurements published in patent US11926826B2, “Twist signaling inhibitor compositions and methods of using the same” (City of Hope, priority 2016, dated 2024).

How the values were obtained:
[1] = system: N-Cadherin mRNA; test: qPCR after YTZ3-15 delivery of siTwist in SUM 1315: N-Cadherin; assay type: cell-based, human; conditions: delivered via YTZ3-15; after seven days
Method: Cell Culture, Transfection, and Stable Cell Line Production. SUM 1315 breast cancer cells were obtained from ATCC (Manassas, VA). Cells were maintained at 37° C., 5% CO2, and 90% humidity in a tissue culture incubator. Media for SUM 1315 cells consisted of a 50-50 mixture of DMEM and F12 media, supplemented with 5 μg/ml insulin, 10 ng/ml EGF, 5% fetal bovine serum, and 1% penicillin/streptomycin. Cells were passaged using 0.25% trypsin (Genesee Scientific, San Diego, CA) every 2-3 days as they reached confluency. […]
Quantitative PCR. […] RNA quantity and quality was measured and analyzed (with 260/280 nm and 260/230 nm spectra measurements) using a NanoDrop ND-1000 (Thermo Fisher Scientific, Waltham, MA). […] Quantitative RT-PCR was performed in quadruplicate using Maxima SYBR Green Master Mix (Thermo Fisher Scientific, Waltham, MA) in 25 μl reactions. […] Data were analyzed using Bio-Rad iQ5 software using the 2^−ΔΔ^Ct method and normalized to Actin. […]

[2] = system: TWIST; test: TWIST knockdown after YTZ3-15 delivery of siRNA in ovarian cancer cell lines; assay type: cell-based
Method: PAMAM dendrimer design and delivery. The polyamidoamine (PAMAM) dendrimer used in this study is the […] third generation dendrimer, illustrated in FIG. 16A and previously described. To complex the dendrimer with siRNA, YTZ3-15 at 240 μM was mixed with […] in OptiMEM Low Serum Medium (Thermo Fisher). Upon complexing with siRNA, dendrimers form micelle structures with siRNA at the surface and the hydrophobic tails sequestered in the core (FIG. 16B). 14.6 μl YTZ3-15 and 10 μl siRNA were used per well of a 6-well plate. Final concentrations of YTZ3-15 and siRNA once added to cells were 1.75 μM and 50 nm, respectively. Where indicated, 3.5 μM YTZ3-15 and 100 nm siRNA were used for Ovcar8.
(§1) Western Blotting. Following siRNA treatment, cells were pelleted and lysed in RIPA buffer. Protein concentration was determined by BCA assay (Thermo Fisher). Following SDS-PAGE, protein was transferred to Amersham PVDF membrane (Genesee Scientific) using a BioRad Trans-Blot SD semi-dry transfer unit. Blots were then blocked in milk for one hour at room temperature or overnight at 4° C. Incubation with primary antibody took place for one hour at room temperature or overnight at 4° C. Antibodies were diluted in 5% milk, with 0.1-0.2% Tween-20. Antibodies used were TWIST 2c1a (Santa Cruz Biotechnology, Dallas, TX) at 1:250-1:500 dilution, β-Actin, A1978 (Sigma Aldrich, St. Louis, MO) at 1:2500-1:5000 dilution; and Horseradish Peroxidase (HRP) conjugated anti-mouse secondary antibodies. For film-based westerns, Blue Devil film (Genesee Scientific) and ECL Plus chemiluminescent substrate (Thermo Fisher) were used to detect protein. For digital westerns, the Syngene Pxi4 digital blot imager and Michigan Diagnostics FemtoGlow chemilumescent substrate were used.

[3] = system: TWIST; test: TWIST knockdown after MSN delivery of siRNA in ovarian cancer cell lines; assay type: cell-based; conditions: A2780R and Ovcar8; loaded onto MSNs
Method: MSN design and delivery. Mesoporous silica nanoparticles (MSNs) were synthesized utilizing the sol-gel method as described previously. First, 250 mg 95% cetyltrimethylammonium bromide (CTAB) was dissolved in 120 ml of water with 875 μl 2M sodium hydroxide solution, at 80° C. Next, 1.2 ml of 98% tetraethylorthosilicate was added. After 15 min, 300 μl of 42% 3-(trihydroxysilyl) propyl methylphosphonate was added, and the mixture was stirred 2 hr. Particles were collected using centrifugation and washed with methanol. Acidic methanol was then used to remove any remaining CTAB surfactants. Zeta potential at 50 μg/mL was 43.75 mV [14]. All chemicals were obtained from Aldrich (St. Louis, MO). Particles were ˜120 nm in diameter, with 2.5 nm pores. Low molecular weight (1.8 kD branched polymer) polyethyleneimine (PEI) was electrostatically attached to the particle surface to provide a positive change to attract negatively charged siRNA [21]. To complex siRNA for in vitro experiments, 10 μl siRNA at 10 μM was mixed with 70 ul MSNs at 500 μg/ml and 20 μl water, and the mixture was incubated overnight at 4° C. on a roller. The following day, 100 μl of the MSN-siRNA complexes was added to each well of a 6-well plate containing 1900 μl normal medium.
as §1, with “For film-based westerns, Blue Devil film (Genesee Scientific) and ECL Plus chemiluminescent substrate (Thermo Fisher) were used to detect protein. For digital westerns, the Syngene Pxi4 digital blot imager and Michigan Diagnostics FemtoGlow chemilumescent substrate were used.” left out

Question: “si419: anti-TWIST siRNA; passenger 5′-GGACAAGCUGAGCAAGAUU-3′ (SEQ ID No: 1), guide 5′-AAUCUUGCUCAGCUUGUCCUU-3′ (SEQ ID No: 2) (listed as RNA, chemistry not fully specified)” was tested. Which “N-Cadherin mRNA decrease” value [1] did it give?
Answer: approximately 90%

Question: What about the TWIST knockdown ([2]; A2780R) of the same substance?
Answer: successfully knocked down TWIST

Question: What about the TWIST knockdown ([2]; Ovcar8, double the usual dose (100 nM siRNA)) of the same substance?
Answer: minimal

Question: And the TWIST knockdown [3]?
Answer: robust TWIST knockdown lasting one week post transfection
